Results as given in patent publication US20140255392A1 (BAYER INTELLECTUAL PROPERTY GMBH, priority 2011, published 2014).
pIC50: −log10 of the molar value.

Target: T1, human kinase Mps-1 (Homo sapiens, UniProt P33981)
T1 construct: N-terminally GST-tagged human full length recombinant Mps-1 kinase; GST (N); purchased Invitrogen, Karslruhe, Germany PV4071
T1 sequence (P33981 1-857): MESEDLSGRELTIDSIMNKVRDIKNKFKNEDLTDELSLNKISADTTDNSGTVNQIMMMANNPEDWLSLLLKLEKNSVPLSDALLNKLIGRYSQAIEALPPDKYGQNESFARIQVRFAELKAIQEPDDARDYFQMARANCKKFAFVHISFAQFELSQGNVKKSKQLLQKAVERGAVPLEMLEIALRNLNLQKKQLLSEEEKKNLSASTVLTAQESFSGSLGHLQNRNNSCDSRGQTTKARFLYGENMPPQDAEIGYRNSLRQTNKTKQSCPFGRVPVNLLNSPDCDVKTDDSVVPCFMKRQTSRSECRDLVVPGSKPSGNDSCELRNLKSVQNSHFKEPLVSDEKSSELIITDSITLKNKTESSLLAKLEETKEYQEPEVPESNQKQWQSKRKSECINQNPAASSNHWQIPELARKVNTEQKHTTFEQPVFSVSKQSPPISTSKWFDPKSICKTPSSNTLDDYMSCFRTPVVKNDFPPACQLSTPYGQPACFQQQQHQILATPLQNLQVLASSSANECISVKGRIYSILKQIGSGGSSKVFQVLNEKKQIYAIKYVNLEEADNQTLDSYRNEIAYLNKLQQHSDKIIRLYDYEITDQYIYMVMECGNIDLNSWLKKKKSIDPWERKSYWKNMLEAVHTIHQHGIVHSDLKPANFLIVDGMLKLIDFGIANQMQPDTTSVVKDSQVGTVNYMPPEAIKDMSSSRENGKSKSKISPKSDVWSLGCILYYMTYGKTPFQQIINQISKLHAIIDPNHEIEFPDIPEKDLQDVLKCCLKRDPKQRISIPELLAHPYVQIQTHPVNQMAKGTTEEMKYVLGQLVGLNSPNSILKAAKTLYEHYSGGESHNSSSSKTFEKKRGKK
Test: Mps-1 kinase assay (TR-FRET)
Assay type: biochemical
Conditions: N-terminally GST-tagged human full length recombinant Mps-1; 10 μM ATP; 1 μM peptide substrate; 60 min at 22° C.
Outline: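 GST-Mps-1 (full length, N-term tag) ~1 nM final, linear-range adjusted per lot; biotinylated peptide substrate. Detection: Eu-anti-pSer/Thr donor → SA-XLent acceptor TR-FRET, 1 h, 22° C. Inhibition of kinase activity.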

| Compound | pIC50 |
| --- | --- |
| CNC(=O)c1ccc(-c2cnc3c(NCCC(F)(F)F)cc(Oc4ccc(O)c(F)c4)cn23)cc1C [Example 130, 4-{6-(3-Fluoro-4-hydroxyphenoxy)-8-[(3,3,3-trifluoropropyl)amino]imidazo[1,2-a]pyridin-3-yl}-N,2-dimethylbenzamide] | 9.05 |
| CCNC(=O)c1ccc(-c2cnc3c(NCCC(F)(F)F)cc(Oc4cccc(Cl)c4)cn23)cc1C [Example 35, 4-{6-(3-chlorophenoxy)-8-[(3,3,3-trifluoropropyl)amino]imidazo[1,2-a]pyridin-3-yl}-N-ethyl-2-methylbenzamide] | 8.20 |
| Cc1cc(-c2cnc3c(NCCC(F)(F)F)cc(-c4ccccc4CO)cn23)ccc1C(=O)NC1CC1 [Example 2-1, N-cyclopropyl-4-{6-[2-(hydroxymethyl)phenyl]-8-[(3,3,3-trifluoropropyl)amino]imidazo[1,2-a]pyridin-3-yl}-2-methylbenzamide] | 9.05 |
| Cc1cc(-c2cnc3c(NCCC(F)(F)F)cc(Oc4ccc(OC(F)(F)F)cc4)cn23)ccc1C(=O)NC1CC1 [Example 64, N-cyclopropyl-2-methyl-4-{6-[4-(trifluoromethoxy)phenoxy]-8-[(3,3,3-trifluoropropyl)amino]imidazo[1,2-a]pyridin-3-yl}benzamide] | 8.07 |
| CCNC(=O)c1ccc(-c2cnc3c(NCC4CCOCC4)cc(Oc4ccc(OC)c(F)c4)cn23)cc1C [Example 122, N-ethyl-4-{6-(3-fluoro-4-methoxyphenoxy)-8-[(tetrahydro-2H-pyran-4-ylmethyl)amino]imidazo[1,2-a]pyridin-3-yl}-2-methylbenzamide] | 8.72 |
| Cc1cc(-c2cnc3c(NCCC(F)(F)F)cc(Oc4cccc(OC(F)(F)F)c4)cn23)ccc1C(=O)NC1(C#N)CC1 [Example 75, N-(1-cyanocyclopropyl)-2-methyl-4-{6-[3-(trifluoromethoxy)phenoxy]-8-[(3,3,3-trifluoropropyl)amino]imidazo[1,2-a]pyridin-3-yl}benzamide] | 6.80 |
| CNC(=O)c1ccc(-c2cnc3c(NCCC(F)(F)F)cc(Oc4cccc(F)c4)cn23)cc1C [Example 8, 4-{6-(3-Fluorophenoxy)-8-[(3,3,3-trifluoropropyl)amino]imidazo[1,2-a]pyridin-3-yl}-N,2-dimethylbenzamide] | 8.47 |
| Cc1cc(-c2cnc3c(NCCC(F)(F)F)cc(Sc4ccccc4O)cn23)ccc1C(=O)NC1CC1 [Example 3-6, N-cyclopropyl-4-{6-[(2-hydroxyphenyl)sulfanyl]-8-[(3,3,3-trifluoropropyl)amino]imidazo[1,2-a]pyridin-3-yl}-2-methylbenzamide] | 9.40 |
| Cc1cc(-c2cnc3c(NCCC(F)(F)F)cc(Oc4ccc(O)cc4)cn23)ccc1C(=O)NC1CC1 [Example 110, N-cyclopropyl-4-{6-(4-hydroxyphenoxy)-8-[(3,3,3-trifluoropropyl)amino]imidazo[1,2-a]pyridin-3-yl}-2-methylbenzamide] | 9.22 |
